{"source": "PubChem BioAssay (NCI)", "assay_in_all_cases": "NCI anticancer screen, dose series, 48 h", "key": {"[1]": {"test_system": "IGROV1 ovarian"}, "[2]": {"test_system": "HS 578T breast"}, "[3]": {"test_system": "HCT-15 colon"}, "[4]": {"test_system": "SW-620 colon"}, "[5]": {"test_system": "CAKI-1 renal"}, "[6]": {"test_system": "OVCAR-4 ovarian"}, "[7]": {"test_system": "SNB-19 CNS"}, "[8]": {"test_system": "NCI-H460 lung"}, "[9]": {"test_system": "MOLT-4 leukemia"}, "[10]": {"test_system": "SK-MEL-28 melanoma"}, "[11]": {"test_system": "MDA-MB-231 breast"}, "[12]": {"test_system": "TK-10 renal"}, "[13]": {"test_system": "SK-OV-3 ovarian"}, "[14]": {"test_system": "MALME-3M melanoma"}, "[15]": {"test_system": "MDA-MB-435"}, "[16]": {"test_system": "HCC-2998 colon"}, "[17]": {"test_system": "U251 CNS"}, "[18]": {"test_system": "OVCAR-8 ovarian"}, "[19]": {"test_system": "OVCAR-5 ovarian"}, "[20]": {"test_system": "SK-MEL-2 melanoma"}}, "note": "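Results reflect a 48-hour exposure of cells in 96-well plates to compound at five concentrations. The concentration for full growth arrest is given as TGI.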", "data": [{"compound": "COc1cc(-c2coc3c(OC)c(OC4OC(COC5OC(C)C(O)C(O)C5O)C(O)C(O)C4O)c(OC)c(O)c3c2=O)cc(C)c1O", "note": "(stereo not given)", "values": [{"measurement": "TGI", "setting": "[1]", "value": 53.1, "unit": "µM"}, {"measurement": "TGI", "setting": "[2]", "value": 62.1, "unit": "µM"}, {"measurement": "TGI", "setting": "[3]", "value": 40.9, "unit": "µM"}, {"measurement": "TGI", "setting": "[4]", "value": 30.9, "unit": "µM"}, {"measurement": "TGI", "setting": "[5]", "value": 38.9, "unit": "µM"}, {"measurement": "TGI", "setting": "[6]", "value": 69.5, "unit": "µM"}, {"measurement": "TGI", "setting": "[7]", "value": 30.3, "unit": "µM"}, {"measurement": "TGI", "setting": "[8]", "value": 82.6, "unit": "µM"}, {"measurement": "TGI", "setting": "[9]", "value": 19.4, "unit": "µM"}, {"measurement": "TGI", "setting": "[10]", "value": 34.4, "unit": "µM"}, {"measurement": "TGI", "setting": "[11]", "value": "> 100", "unit": "µM"}, {"measurement": "TGI", "setting": "[12]", "value": "> 100", "unit": "µM"}, {"measurement": "TGI", "setting": "[13]", "value": 60.3, "unit": "µM"}, {"measurement": "TGI", "setting": "[14]", "value": 33.9, "unit": "µM"}, {"measurement": "TGI", "setting": "[15]", "value": 75.2, "unit": "µM"}, {"measurement": "TGI", "setting": "[16]", "value": 39.2, "unit": "µM"}, {"measurement": "TGI", "setting": "[17]", "value": 32.9, "unit": "µM"}, {"measurement": "TGI", "setting": "[18]", "value": "> 100", "unit": "µM"}, {"measurement": "TGI", "setting": "[19]", "value": 45.5, "unit": "µM"}, {"measurement": "TGI", "setting": "[20]", "value": 59.9, "unit": "µM"}]}]}
